Test [1] concerns U-87 MG. Put plainly: Antitumor activity against human U-87 MG cells xenografted in BALB/c nude mouse assessed as reduction in tumor growth at 5 mg/kg, iv administered once daily for 16 days relative to control. It counts as functional, U-87MG ATCC. Set-up: scale not given: the % may be the effect or the level left. The following applies: time 16 day. (In general: In xenograft studies the graft and the host belong to different species.)

The subject of test [2] is U-251. Put plainly: Antiproliferative activity against human U-251MG cells assessed as reduction in cell viability incubated for 48 hrs by SRB assay. It counts as functional, cell-based. The following applies: U-251, 48 h. (In general: Sulforhodamine B stains cellular protein and so reports cell mass.)
Test [3] relates to T98G. Put plainly: Antiproliferative activity against human T98G cells assessed as reduction in cell viability incubated for 96 hrs by MTT assay. In kind it is functional, cell-based.
Test [4] relates to T98G. Put plainly: Induction of apoptosis in human T98G cells at 10 ug/ml relative to control. It counts as functional. The following applies: dose 10 µg/ml.
The test system of another test is SF-268. Put plainly: Antiproliferative activity against human SF-268 cells assessed as inhibition of cell growth by MTT assay. In kind it is functional. The following applies: read-out: ED50 (the source's name). For orientation: Tetrazolium dyes change colour on reduction, which living cells bring about.
Test [5] concerns C6. Put plainly: Cytotoxicity against rat C6 cells assessed as reduction in cell growth measured for 48 hrs by MTT assay. It counts as functional, cell-based. The following applies: C6, 48 h.
In test [6] the test system is C6. Put plainly: Antiproliferative activity against rat C6 cells assessed as reduction in cell viability incubated foe 24 hrs by MTT assay. In kind it is functional, cell-based. The following applies: C6, 24 h.
The test system of test [7] is U-251. Put plainly: Antiproliferative activity against human U-251MG cells assessed as reduction in cell viability at 50 uM incubated for 48 hrs by CCK-8 assay relative to control. In kind it is functional.
The test system of test [8] is U-87 MG. Put plainly: Antiproliferative activity against human U-87 MG cells assessed as reduction in cell viability at 50 uM incubated for 48 hrs by CCK-8 assay relative to control. In kind it is functional, U-87MG ATCC.
In test [9] the test system is U-87 MG. Put plainly: Antiproliferative activity against human U-87 MG cells assessed as reduction in cell viability incubated for 48 hrs by CCK-8 assay. It counts as functional, cell-based, U-87MG ATCC.
Another test deals with LN-18. Put plainly: Antiproliferative activity against human LN-18 cells assessed as reduction in cell viability incubated for 48 hrs by CCK-8 assay. In kind it is functional, cell-based. The following applies: LN-18, 48 h.
The subject of test [10] is U-87 MG. Put plainly: Antiproliferative activity against human U-87 MG cells assessed as reduction in cell viability incubated foe 24 hrs by MTT assay. It counts as functional, cell-based, U-87MG ATCC.
Test [11] in a line: Antitumor activity against mouse GL261 cells implanted in C57BL/6 mouse model assessed as fold reduction in cell proliferation under radiation at 150 mg/kg via oral gavage (reference value: 3.3 fold). In kind it is functional.
Test [12] relates to T98G. Put plainly: Induction of apoptosis in human T98G cells assessed as fold increase in apoptosis at 10 uM under radiation measured after 24 hrs by annexin V and PI staining based flow cytometry analysis (Rvb=3.7). It counts as functional.
In test [13] the test system is U-87 MG. Put plainly: Antiproliferative activity against human U-87 MG cells assessed as reduction in inhibition of cell growth incubated for 72 hrs by MTT assay. In kind it is functional, cell-based, U-87MG ATCC.
The nature of test [14]: Antiproliferative activity against human TMZ-sensitive A-172 cells assessed as reduction in cell growth incubated for 48 hrs by MTT assay. It counts as functional, cell-based, TMZ-sensitive A-172 cell. The following applies: A 172, 48 h.
Test [15] concerns C6. Put plainly: Antitumor activity against rat C6 cells implanted in athymic nude mouse assessed as reduction in tumor volume at 300 mg/kg, IC administered once daily for 21 days relative to control. The following applies: time 21 day. It counts as functional. Also noted: scale not given: the % may be the effect or the level left.
Test [16] in a line: Antitumor activity against mouse GL261 cells implanted in C57BL/6 mouse model assessed as increase in tumor growth delay without radiation at 150 mg/kg via oral gavage (reference value: 12.7+/-2.8 days). In kind it is functional.
Test [17] is described as follows: Antiproliferative activity against human TMZ-resistant U-251MG cell assessed as reduction in cell growth incubated for 48 hrs by MTT assay. The following applies: U-251, 48 h. In kind it is functional, cell-based.
The subject of test [18] is C6. Put plainly: Antitumor activity against rat C6 cells implanted in athymic nude mouse assessed as reduction in tumor volume at 300 mg/kg, sc administered once daily for 21 days relative to control. The following applies: time 21 day. Also noted: scale not given: the % may be the effect or the level left. In kind it is functional.
Test [19] deals with C6. Put plainly: Antiproliferative activity against rat C6 cells assessed as reduction in cell growth measured for 96 hrs by WST-1 assay. It counts as functional, cell-based. The following applies: C6, 96 h.
Test [20] is described as follows: Antiproliferative activity against human TMZ-resistant LN-229 cells assessed as reduction in cell growth incubated for 48 hrs by MTT assay. In kind it is functional, cell-based, TMZ-resistant LN-229 cell. The following applies: LN-229, 48 h.
A short description of test [21]: Downregulation of HIF-1alpha expression in human U-87 MG cells at 150 uM relative to control. It counts as functional, U-87MG ATCC.
The nature of test [22]: Antiproliferative activity against human TMZ-sensitive LN-229 cells assessed as reduction in cell growth incubated for 48 hrs by MTT assay. In kind it is functional, cell-based, TMZ-sensitive LN-229 cell. The following applies: LN-229, 48 h.
In test [23] the test system is C6. Put plainly: Anticancer activity against rat C6 cells assessed as reduction in cell growth at 10 ug/ml incubated for 24 hrs by MTT assay relative to control. It counts as functional.
Test [24] is described as follows: Antitumor activity against mouse GL261 cells implanted in C57BL/6 mouse model assessed as increase in tumor growth delay under radiation at 150 mg/kg via oral gavage (reference value: 12.7+/-2.8 days). In kind it is functional.
Test [25] in a line: Antiproliferative activity against human TMZ-sensitive U-251MG cells assessed as reduction in cell growth incubated for 48 hrs by MTT assay. It counts as functional, cell-based, TMZ-sensitive U-251MG cell. The following applies: U-251, 48 h.
In test [26] the test system is HUVEC. Put plainly: Antivascular activity against HUVEC cells assessed as inhibition of capillary tube formation at 150 incubated for 6 hrs by microscopy based analysis relative to control. Set-up: scale not given: the % may be the effect or the level left. In kind it is functional, Homo sapiens.
A short description of test [27]: Downregulation of HIF-1alpha expression in human T98G cells at 150 uM relative to control. In kind it is functional.
Test [28] relates to T98G. Put plainly: Antiproliferative activity against human T98G cells assessed as reduction in inhibition of cell growth incubated for 72 hrs by MTT assay. It counts as functional, cell-based.
For the next test, the system named is LN-229. Put plainly: Antiproliferative activity against human LN-229 cells assessed as reduction in inhibition of cell growth incubated for 72 hrs by MTT assay. It counts as functional, cell-based. The following applies: LN-229, 72 h.
Test [29] has as its system HUVEC. Put plainly: Antivascular activity against HUVEC cells assessed as inhibition of capillary tube formation at 100 incubated for 6 hrs by microscopy based analysis relative to control. In kind it is functional, Homo sapiens. Also noted: scale not given: the % may be the effect or the level left.
The subject of test [30] is HUVEC. Put plainly: Antivascular activity against HUVEC cells assessed as inhibition of capillary tube formation at 50 incubated for 6 hrs by microscopy based analysis relative to control. Set-up: scale not given: the % may be the effect or the level left. It counts as functional, Homo sapiens.
A short description of test [31]: Antiproliferative activity against human TMZ-resistant A-172 cells assessed as reduction in cell growth incubated for 48 hrs by MTT assay. The following applies: TMZ-resistant A-172 cell. It counts as functional, cell-based.
In another test the test system is U-118-MG. Put plainly: Antiproliferative activity against human U-118-MG cells assessed as reduction in inhibition of cell growth incubated for 72 hrs by MTT assay. It counts as functional, cell-based.
Test [32] has as its system T98G. Put plainly: Anticancer activity against human T98G cells assessed as reduction in cell viability. In kind it is functional, cell-based.
The test system of test [33] is T98G. Put plainly: Antiproliferative activity against human T98G cells assessed as reduction in cell viability incubated for 72 hrs by WST-8 reagent based assay. It counts as functional.
Test [34] can be described thus: Inhibition of colony formation in human U-251MG cells assessed as reduction in number of cell clone measured after 14 days by crystal violet staining based microscopic analysis. In kind it is functional. The following applies: 336 h.
The subject of test [35] is U-87 MG. Put plainly: Antiproliferative activity against human U-87 MG cells assessed as reduction in cell viability incubated for 72 hrs by WST-8 reagent based assay. It counts as functional, U-87MG ATCC.
The test system of test [36] is T98G. Put plainly: Inhibition of colony formation in human T98G cells assessed as reduction in number of cell clone measured after 14 days by crystal violet staining based microscopic analysis. It counts as functional. The following applies: 336 h.
For test [37], the system named is U-87 MG. Put plainly: Antitumor activity against human U-87 MG cells xenografted in BALB/c nude mouse model assessed as reduction in tumor volume at 40 mg/kg, ip administered twice a day for 4 days relative to control. In kind it is functional, U-87MG ATCC. Set-up: scale not given: the % may be the effect or the level left. The following applies: time 4 day.

From ChEMBL document CHEMBL6115010, “Targeting glioma with heteroaromatic alkaloids: A review of potential therapeutics” (Bioorg Med Chem, 2025) come the findings set out here.

As usually defined, the IC50 is the point on the concentration scale where inhibition reaches its midpoint. One may read the inhibition as the relative decrease from the control value, in per cent.

Molecules are shown by their SMILES. In brackets after ≈: the same amount, converted by molar mass.

`O=C1c2ccccc2-[n+]2ccc3c([nH]c4ccccc43)c21` [FASCAPLYSIN]: the Activity in the test on U-87 MG [1] is 54.92%.
For the compound `O[C@H]1[C@H]2c3cc4c(cc3CN3CCC(=C[C@@H]1O)[C@H]23)OCO4` [LYCORINE], in the test with U-251 [2], the IC50 worked out at 10 µM.
As to `COc1ccc2c(c1O)-c1c(O)c(OC)cc3c1[C@H](C2)[N+](C)(C)CC3` [MAGNOFLORINE], the IC50 in the test on T98G [3] turned out to be 112 µg/mL. The compound also came in with an Activity in the test with T98G [4] of 24.02%.
Turning to `O=C1N[C@@H]2C(=C[C@H](O)[C@@H](O)[C@H]2O)c2cc3c(c(O)c21)OCO3` [NARCICLASINE], in the test with SF-268, the EC50 came to 0.021 µg/mL (≈ 0.0683 µM).
Take `COc1ccc(C[C@@H]2c3cc(Oc4cc(C[C@@H]5c6cc(OC)c(OC)cc6CCN5C)ccc4O)c(OC)cc3CCN2C)cc1` [NEFERINE]: the IC50 with C6 [5] turned out to be 12 µM.
On to `COc1cc2c[n+](C)c3c4cc5c(cc4ccc3c2cc1OC)OCO5.[Cl-]` [NITIDINE CHLORIDE], for which the IC50 worked out at 8 µM with C6 [6], 5 µM with U-87 MG [9], 5 µM in the test with LN-18 and 10 µM in the test with U-87 MG [10]. Also, the Activity in the test on U-251 [7] and in the test with U-87 MG [8] was ~50% throughout.
With `COc1ccc2c(c1OC)C(=O)O[C@@H]2[C@H]1c2c(cc3c(c2OC)OCO3)CCN1C` [NOSCAPINE], the “fold change (FC)” value came to 5.6 in test [11] and 6.4 with T98G [12]. The IC50 in the test on U-87 MG [13] came to 131 µM; in test [14], 20 µM; in test [17], 30 µM; in the test with C6 [19] it was 250 µM; in [20] it was 75 µM; in [22], 70 µM. Besides, the IC50 worked out at 40 µM in test [25]; 97 µM in the test with T98G [28]; 86 µM in the test on LN-229; 60 µM in test [31]; 91 µM in the test on U-118-MG. In addition, the Activity is reported as 78% with C6 [15]; 60% in the test on C6 [18]; 60% in [21]; 40% with HUVEC [26]; 90% in test [27]; 40% in the test on HUVEC [29]. The Activity in the test on HUVEC [30] was determined as 30%. Besides, the Time is 8 days in test [16] and 18 days in test [24]. Besides, the inhibition at 10 µg/mL in the test on C6 [23] amounted to 49%.
Consider `COc1ccc(Cc2nccc3cc(OC)c(OC)cc23)cc1OC` [PAPAVERINE], for which the EC50 with T98G [32] was determined as 3.1 µM; in the test on T98G [33], 42 µM; in [34] it was 11 µM; in the test on U-87 MG [35], 42 µM; in the test with T98G [36], 4.5 µM. Further, the Activity in the test on U-87 MG [37] turned out to be 63%.
